# Test results: the NIST ThermoML archive (doi:10.1021/acs.jced.7b00005)
# ± gives the expanded uncertainty stated by the source.
# Conditions: Liquid, Ebulliometric method (Recirculating still)
compound,measurement,setting,value
CC#N [acetonitrile],vapor or sublimation pressure,295.25 K,10 ± 0.3 kPa
same,vapor or sublimation pressure,295.4 K,10 ± 0.3 kPa
